The supplement of paper PMC10307832

Legend:
Test in all cases: relative viability (nuclei count vs DMSO), 5 days (fraction); higher = more cells survive
[1] = compound: O=C(/C=C/c1ccccc1)NC(NC(=S)Nc1cccc2cccnc12)C(Cl)(Cl)Cl [Salubrinal] + CC(=O)c1c(C)c2cnc(Nc3ccc(N4CCNCC4)cn3)nc2n(C2CCCC2)c1=O [Palbociclib] (partner 0.5 µM)
Summary of the method: (§1)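 Medians of duplicate plates are given as relative viability. That measure is the nuclei count in treated wells divided by the count in vehicle wells. Counts were taken on 4× images of lung cancer cell lines in 1536-well plates, 5 days after pin-tool dosing the day after seeding with one drug alone or a fixed anchor-drug dose plus five library-drug doses (not always all listed) in √10 steps.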

[2] = compound: O=C(/C=C/c1ccccc1)NC(NC(=S)Nc1cccc2cccnc12)C(Cl)(Cl)Cl [Salubrinal] + NC(=O)Nc1cc(-c2cccc(F)c2)sc1C(=O)N[C@H]1CCCNC1 [AZD7762] (partner 0.2 µM)
Summary of the method: as §1

[3] = compound: Cc1ccc2nc(NCCN)c3ncc(C)n3c2c1 + Cc1nc(NC(=O)N2CCC[C@H]2C(N)=O)sc1-c1ccnc(C(C)(C)C(F)(F)F)c1 [Alpelisib] (partner 2 µM)
Summary of the method: as §1

[4] = compound: O=C(/C=C/c1ccccc1)NC(NC(=S)Nc1cccc2cccnc12)C(Cl)(Cl)Cl [Salubrinal] + CC(C)C[C@H](NC(=O)[C@H](Cc1ccccc1)NC(=O)c1cnccn1)B(O)O [Bortezomib] (partner 0.002 µM)
Summary of the method: as §1

Cell Line	relative viability ([1]; first compound 0.08 µM)	relative viability ([1]; first compound 0.253 µM)	relative viability ([1]; first compound 0.8 µM)	relative viability ([1]; first compound 2.53 µM)	relative viability ([1]; first compound 8 µM)	relative viability ([2]; first compound 0.08 µM)	relative viability ([2]; first compound 0.253 µM)	relative viability ([2]; first compound 0.8 µM)	relative viability ([2]; first compound 2.53 µM)	relative viability ([2]; first compound 8 µM)	relative viability ([3]; first compound 0.04 µM)	relative viability ([3]; first compound 0.1265 µM)	relative viability ([3]; first compound 0.4 µM)	relative viability ([3]; first compound 1.265 µM)	relative viability ([3]; first compound 4 µM)	relative viability ([4]; first compound 0.08 µM)	relative viability ([4]; first compound 0.253 µM)	relative viability ([4]; first compound 0.8 µM)	relative viability ([4]; first compound 2.53 µM)	relative viability ([4]; first compound 8 µM)
LU99A	0.419	0.425	0.458	0.388	0.447	0.459	0.319	0.401	0.311	0.236	0.59	0.539	0.576	0.609	0.464	1.3	1.31	1.37	0.971	0.909
ABC-1	0.692	0.576	0.836	0.547	0.664	0.97	0.998	0.948	0.898	0.825	1.15	1.27	1.18	1.15	0.742	0.322	0.35	0.363	0.303	0.281
NCI-H2347	0.452	0.462	0.415	0.388	0.387	0.537	0.82	0.919	0.749	0.744	1.06	0.978	1.06	0.91	1.01	1.05	1.04	0.998	1.17	1.04
NCI-H1993	0.718	0.596	0.737	–	0.648	0.909	0.744	0.871	–	0.612	0.69	0.666	0.649	0.625	0.693	1.09	1.05	1.31	1.01	1.28
NCI-H322M	0.528	0.445	0.547	0.483	0.518	0.576	0.531	0.599	0.497	0.581	0.948	0.755	0.798	0.641	0.766	1.33	1.15	1.26	1.22	1.19
NCI-H838	0.225	0.244	0.218	0.247	0.214	0.961	0.957	1.06	0.962	0.951	1.01	0.961	0.938	0.883	0.899	0.82	0.749	0.983	0.911	0.608
HARA	0.294	0.281	0.252	0.269	0.236	0.374	0.254	0.25	0.437	0.196	0.839	0.831	0.804	0.715	0.788	1.14	1.01	1.16	1.13	1.06
NCI-H2087	0.214	0.235	0.17	0.234	0.206	1.44	0.751	1.44	1.31	1.29	1.07	1.15	0.998	0.963	0.998	0.755	0.458	0.855	0.809	0.989
NCI-H1437	0.321	0.334	0.327	0.315	0.322	1.19	1.1	1.16	1.11	1.04	0.926	0.914	1.02	0.904	0.907	0.667	0.474	0.68	0.535	0.465
NCI-H1792	0.789	–	0.678	0.686	0.66	0.514	–	0.982	0.571	0.354	0.696	0.678	0.615	0.527	0.661	1.2	–	1.23	0.92	0.806
NCI-H650	0.346	0.3	0.355	0.332	0.298	1.01	1.19	1.04	0.953	0.883	1.15	0.922	1.1	0.997	0.975	0.877	0.724	1.23	0.997	0.817
201T	0.355	0.332	0.413	0.351	0.374	0.627	0.616	0.741	0.648	0.637	1.03	1.01	1.02	1.05	1.02	1.14	1.06	1.14	1.09	1.11
HCC-44	1.03	0.941	0.971	0.998	1	1.02	1.01	1.02	1	0.977	0.776	0.787	0.786	0.711	0.769	0.799	0.817	0.997	0.922	0.86
H3255	0.315	0.344	0.319	0.299	0.332	0.967	0.786	1.03	0.87	0.859	0.77	0.613	0.705	0.659	0.593	0.816	0.826	1.23	0.767	0.761
NCI-H647	0.56	0.37	0.39	0.431	0.347	0.616	0.435	0.487	0.505	0.397	1.05	1.01	1.06	1.26	1	1.05	1.37	1.2	1.06	0.792
NCI-H23	0.635	0.387	0.598	0.46	0.501	0.175	0.206	0.236	0.23	0.23	0.893	0.572	0.797	0.614	0.696	1.25	0.871	1.2	1.04	1.16

Cell Line	relative viability ([1]; first compound 0.08 µM)	relative viability ([1]; first compound 0.253 µM)	relative viability ([1]; first compound 0.8 µM)	relative viability ([1]; first compound 2.53 µM)	relative viability ([1]; first compound 8 µM)	relative viability ([2]; first compound 0.08 µM)	relative viability ([2]; first compound 0.253 µM)	relative viability ([2]; first compound 0.8 µM)	relative viability ([2]; first compound 2.53 µM)	relative viability ([2]; first compound 8 µM)	relative viability ([3]; first compound 0.04 µM)	relative viability ([3]; first compound 0.1265 µM)	relative viability ([3]; first compound 0.4 µM)	relative viability ([3]; first compound 1.265 µM)	relative viability ([3]; first compound 4 µM)	relative viability ([4]; first compound 0.08 µM)	relative viability ([4]; first compound 0.253 µM)	relative viability ([4]; first compound 0.8 µM)	relative viability ([4]; first compound 2.53 µM)	relative viability ([4]; first compound 8 µM)
NCI-H460	0.202	0.158	0.184	0.145	0.105	0.627	0.546	0.722	0.711	0.552	0.54	0.495	0.476	0.382	0.374	1.66	0.452	1.4	1.08	1.21
EKVX	0.408	0.457	0.791	0.412	0.37	0.78	0.591	0.999	0.721	0.757	0.962	0.856	0.83	0.808	0.778	1.14	0.821	1.17	1.06	1.02
EPLC-272H	0.314	0.295	0.293	0.288	0.312	0.229	0.191	0.304	0.229	0.156	1.07	0.937	0.896	1.06	0.96	0.884	0.756	1.11	1.1	0.855
NCI-H2126	0.382	0.383	0.363	0.388	0.386	1.05	0.936	1.06	0.992	0.909	0.738	0.73	0.77	0.719	0.782	1.11	1.02	1.21	1.22	1.07
LXF-289	0.678	0.478	0.633	0.578	0.578	1.25	1.06	1.17	1.09	0.931	1.1	1.01	0.984	1.06	1.03	1.06	0.654	1.06	0.969	0.851
NCI-H2405	0.536	0.484	0.55	0.524	0.521	0.872	0.704	0.835	0.813	0.664	0.835	0.698	0.801	0.728	0.696	1.11	0.963	1.02	1.04	1.05
NCI-H1755	0.486	0.415	0.446	0.462	0.493	0.668	0.406	0.517	0.41	0.584	0.978	0.928	0.898	0.962	0.908	1.06	0.968	1.05	1	0.945
HCC-78	0.462	0.403	0.488	0.464	0.539	0.699	0.599	0.758	0.613	0.538	0.338	0.337	0.288	0.309	0.308	0.516	0.579	0.521	0.537	0.427
LOU-NH91	0.6	0.565	0.521	0.556	0.569	0.813	0.785	0.83	0.745	0.706	0.739	0.736	0.735	0.674	0.696	0.481	0.406	0.55	0.505	0.477
NCI-H3122	0.195	0.238	0.172	0.195	0.176	1.16	0.979	1.07	1.1	1.05	0.88	0.942	0.812	0.779	0.855	1	1.01	0.927	0.98	0.991
HCC-827	0.49	0.441	0.514	0.475	0.48	0.193	0.191	0.199	0.181	0.222	0.964	1.02	0.941	0.958	0.905	0.98	0.955	1.23	1.05	1.07
NCI-H1975	0.473	0.424	0.675	0.717	0.567	0.691	0.611	0.853	0.744	0.601	0.618	0.551	0.677	0.643	0.5	0.419	0.362	0.353	0.344	0.355
NCI-H1651	0.561	0.479	0.564	0.513	0.508	0.464	0.423	0.546	0.484	0.388	0.996	0.885	0.905	0.936	0.834	0.972	0.925	0.994	0.925	0.921
NCI-H441	0.222	0.189	0.313	0.23	0.201	1.28	0.87	1.03	0.905	0.85	0.646	0.719	0.843	0.746	0.928	0.392	0.516	0.386	0.372	0.362
LCLC-103H	0.469	0.491	0.469	0.453	0.467	0.856	0.699	0.806	0.815	0.701	0.996	0.938	0.94	0.884	0.991	0.97	0.971	1.2	1	1.15
LCLC-97TM1	0.236	0.224	0.221	0.227	0.265	0.268	0.288	0.227	0.139	0.202	0.321	0.241	0.225	0.183	0.194	0.995	–	1.22	0.626	0.637
